Test results from ChEMBL document CHEMBL3792365, “Dioxol and dihydrodioxin analogs of 2- and 3-phenylacetonitriles as potent anti-cancer agents with nanomolar activity against a variety of human cancer cells” (2016).

Experiments:
Type in all cases: functional
[1] = Growth inhibition of human SNB75 cells at 10 uM after 48 hrs by sulforhodamine B assay; conditions: SNB-75, 48 h, values are per cent of control
[2] = system: U-251; experiment: Growth inhibition of human U251 cells at 10 uM after 48 hrs by sulforhodamine B assay; conditions: U-251, 48 h, values are per cent of control
[3] = Growth inhibition of human LOXIMVI cells at 10 uM after 48 hrs by sulforhodamine B assay; conditions: LOX IMVI, values are per cent of control
[4] = system: M14; experiment: Growth inhibition of human M14 cells at 10 uM after 48 hrs by sulforhodamine B assay; conditions: M14, 48 h, values are per cent of control
[5] = system: MDA-MB-435; experiment: Growth inhibition of human MDA-MB-435 cells at 10 uM after 48 hrs by sulforhodamine B assay; conditions: MDA-MB-435, 48 h, values are per cent of control
[6] = system: SK-MEL-28; experiment: Growth inhibition of human SK-MEL-28 cells at 10 uM after 48 hrs by sulforhodamine B assay; conditions: SK-MEL-28, 48 h, values are per cent of control
[7] = system: SK-MEL-5; experiment: Growth inhibition of human SK-MEL-5 cells at 10 uM after 48 hrs by sulforhodamine B assay; conditions: SK-MEL-5, 48 h, values are per cent of control
[8] = Growth inhibition of human UACC62 cells at 10 uM after 48 hrs by sulforhodamine B assay; conditions: UACC-62, 48 h, values are per cent of control
[9] = Growth inhibition of human IGROV1 cells at 10 uM after 48 hrs by sulforhodamine B assay; conditions: IGROV-1, 48 h, values are per cent of control
[10] = Growth inhibition of human OVCAR4 cells at 10 uM after 48 hrs by sulforhodamine B assay; conditions: OVCAR-4, 48 h, values are per cent of control
[11] = Growth inhibition of human OVCAR5 cells at 10 uM after 48 hrs by sulforhodamine B assay; conditions: OVCAR-5, 48 h, values are per cent of control
[12] = Growth inhibition of human OVCAR8 cells at 10 uM after 48 hrs by sulforhodamine B assay; conditions: OVCAR-8, 48 h, values are per cent of control
[13] = Growth inhibition of human NCI-ADR-RES cells at 10 uM after 48 hrs by sulforhodamine B assay; conditions: values are per cent of control
[14] = system: A498; experiment: Growth inhibition of human A498 cells at 10 uM after 48 hrs by sulforhodamine B assay; conditions: A498, 48 h, values are per cent of control
[15] = system: ACHN; experiment: Growth inhibition of human ACHN cells at 10 uM after 48 hrs by sulforhodamine B assay; conditions: values are per cent of control
[16] = Growth inhibition of human Caki1 cells at 10 uM after 48 hrs by sulforhodamine B assay; conditions: CAKI-1, 48 h, values are per cent of control
[17] = Growth inhibition of human RXF393 cells at 10 uM after 48 hrs by sulforhodamine B assay; conditions: RXF 393, 48 h, values are per cent of control
[18] = system: SN12C; experiment: Growth inhibition of human SN12C cells at 10 uM after 48 hrs by sulforhodamine B assay; conditions: values are per cent of control
[19] = Growth inhibition of human UO31 cells at 10 uM after 48 hrs by sulforhodamine B assay; conditions: UO-31, 48 h, values are per cent of control
[20] = Growth inhibition of human DU145 cells at 10 uM after 48 hrs by sulforhodamine B assay; conditions: DU-145, 48 h, values are per cent of control
[21] = system: MDA-MB-231; experiment: Growth inhibition of human MDA-MB-231 cells at 10 uM after 48 hrs by sulforhodamine B assay; conditions: MDA-MB-231, 48 h, values are per cent of control
[22] = Growth inhibition of human Hs 578T cells at 10 uM after 48 hrs by sulforhodamine B assay; conditions: values are per cent of control
[23] = Growth inhibition of human BT549 cells at 10 uM after 48 hrs by sulforhodamine B assay; conditions: BT-549, 48 h, values are per cent of control
[24] = system: T47D; experiment: Growth inhibition of human T47D cells at 10 uM after 48 hrs by sulforhodamine B assay; conditions: values are per cent of control
[25] = system: MDA-MB-468; experiment: Growth inhibition of human MDA-MB-468 cells at 10 uM after 48 hrs by sulforhodamine B assay; conditions: MDA-MB-468, 48 h, values are per cent of control
[26] = system: K562; experiment: Growth inhibition of human K562 cells at 10 uM after 48 hrs by sulforhodamine B assay; conditions: K562, 48 h, values are per cent of control
[27] = system: A549; experiment: Growth inhibition of human A549/ATCC cells at 10 uM after 48 hrs by sulforhodamine B assay; conditions: A549, 48 h, values are per cent of control
[28] = Growth inhibition of human HOP62 cells at 10 uM after 48 hrs by sulforhodamine B assay; conditions: HOP-62, 48 h, values are per cent of control
[29] = system: NCI-H322M; experiment: Growth inhibition of human NCI-H322M cells at 10 uM after 48 hrs by sulforhodamine B assay; conditions: values are per cent of control
[30] = system: NCI-H460; experiment: Growth inhibition of human NCI-H460 cells at 10 uM after 48 hrs by sulforhodamine B assay; conditions: NCI-H460, 48 h, values are per cent of control
[31] = system: NCI-H522; experiment: Growth inhibition of human NCI-H522 cells at 10 uM after 48 hrs by sulforhodamine B assay; conditions: NCI-H522, 48 h, values are per cent of control
[32] = Growth inhibition of human COLO205 cells at 10 uM after 48 hrs by sulforhodamine B assay; conditions: COLO 205, 48 h, values are per cent of control
[33] = Growth inhibition of human HCC2998 cells at 10 uM after 48 hrs by sulforhodamine B assay; conditions: HCC 2998, 48 h, values are per cent of control
[34] = Growth inhibition of human HCT116 cells at 10 uM after 48 hrs by sulforhodamine B assay; conditions: HCT-116, 48 h, values are per cent of control
[35] = Growth inhibition of human HCT15 cells at 10 uM after 48 hrs by sulforhodamine B assay; conditions: HCT-15, 48 h, values are per cent of control
[36] = system: KM12; experiment: Growth inhibition of human KM12 cells at 10 uM after 48 hrs by sulforhodamine B assay; conditions: KM12, 48 h, values are per cent of control
[37] = Growth inhibition of human SW620 cells at 10 uM after 48 hrs by sulforhodamine B assay; conditions: SW-620, 48 h, values are per cent of control
[38] = Growth inhibition of human SF268 cells at 10 uM after 48 hrs by sulforhodamine B assay; conditions: SF-268, 48 h, values are per cent of control
[39] = Growth inhibition of human SF539 cells at 10 uM after 48 hrs by sulforhodamine B assay; conditions: SF-539, 48 h, values are per cent of control
[40] = Growth inhibition of human SNB19 cells at 10 uM after 48 hrs by sulforhodamine B assay; conditions: SNB-19, 48 h, values are per cent of control

With `N#C/C(=C\c1ccc2c(c1)OCO2)c1ccc2c(c1)OCO2` the growth, % of control at 10 µM [1] was 94.3%, the growth, % of control at 10 µM [2] was 77.2% and the growth, % of control at 10 µM [3] was 65.1%. For the same compound, the growth, % of control at 10 µM [4] was 50.8%, the growth, % of control at 10 µM [5] was -5.7% and the growth, % of control at 10 µM [6] was 88.5%. For the same compound, the growth, % of control at 10 µM [7] was 75.9%, the growth, % of control at 10 µM [8] was 69.4% and the growth, % of control at 10 µM [9] was 66.1%. It also gave a growth, % of control at 10 µM [10] of 89.7%, a growth, % of control at 10 µM [11] of 97.9% and a growth, % of control at 10 µM [12] of 83.8%. It also gave a growth, % of control at 10 µM [13] of 41%, a growth, % of control at 10 µM [14] of 73.7% and a growth, % of control at 10 µM [15] of 96.2%. It also gave a growth, % of control at 10 µM [16] of 66.8%, a growth, % of control at 10 µM [17] of 94.7% and a growth, % of control at 10 µM [18] of 90.7%. For the same compound, the growth, % of control at 10 µM [19] was 86.7%, the growth, % of control at 10 µM [20] was 92.5% and the growth, % of control at 10 µM [21] was 66.8%. For the same compound, the growth, % of control at 10 µM [22] was 89.7%, the growth, % of control at 10 µM [23] was 49.6% and the growth, % of control at 10 µM [24] was 67.7%. It also gave a growth, % of control at 10 µM [25] of 54.9%, a growth, % of control at 10 µM [26] of 24.9% and a growth, % of control at 10 µM [27] of 59.5%. The growth, % of control at 10 µM [28] was 76.7%, the growth, % of control at 10 µM [29] was 106% and the growth, % of control at 10 µM [30] was 83.6%. It also gave a growth, % of control at 10 µM [31] of 76.4%, a growth, % of control at 10 µM [32] of 59.8% and a growth, % of control at 10 µM [33] of 72.3%. The growth, % of control at 10 µM [34] was 57.5%, the growth, % of control at 10 µM [35] was 43.9% and the growth, % of control at 10 µM [36] was 42.2%. For the same compound, the growth, % of control at 10 µM [37] was 42.9%, the growth, % of control at 10 µM [38] was 81.2% and the growth, % of control at 10 µM [39] was 79.4%. The growth, % of control at 10 µM [40] was 95.9%.
